Assay results reported in US20240174680A1, “CDK2 INHIBITORS AND METHODS OF USING THE SAME” (Cedilla Therapeutics, Inc., priority 2021, published 2024).

Target: CDK2/Cyclin E1 (Homo sapiens, UniProt P24941)
Test: CDK2/Cyclin E1 Caliper LabChip EZ Reader mobility shift assay
Type: biochemical
Parameters: purchased Eurofins 14-475
Settings: read-out: Caliper Assay (CDK2/CCNE1): IC50
Method: Inhibition of CDK2/Cyclin E1 activity in the presence of compounds of the present disclosure was evaluated using a Caliper LabChip® EZ Reader mobility shift assay. In the assay, CDK2/Cyclin E1 (Eurofins, 14-475) catalyzed the phosphorylation of a fluorescently tagged peptide 5-FAM-QSPKKG-CONH2 (PerkinElmer, FL Peptide 18) which induced a difference in capillary electrophoresis mobility. The peptide substrate and product were measured, and the conversion ratio was used to determine the inhibition (as % activity and IC50 values) of CDK2/Cyclin E1. Reactions contained 50 mM HEPES pH 7.5, 10 mM MgCl2, 1 mM EDTA, 2 mM DTT, 0.01% Brij35, 0.5 mg/mL BSA, 0.1% DMSO, 2.5 nM CDK2/Cyclin E1, 100 μM ATP, and 1.5 μM fluorescent peptide substrate.
Dose titrations of inhibitors in 100% DMSO were combined with 3.25 nM CDK2/Cyclin E1 and 130 μM of ATP in reaction buffer. The mixtures were incubated for 30 minutes before the addition of fluorescent peptide substrate to initiate the kinase reaction. The final conditions were 2.5 nM CDK2/Cyclin E1, 100 μM ATP, and 1.5 μM fluorescent peptide. The reactions were stopped after 100 minutes with the addition of EDTA (400 mM final EDTA concentration). The stopped reactions were analyzed on a Caliper LabChip® EZ Reader II. The conversion ratios were normalized to yield % activity, plotted against compound concentration, and fit to a four-parameter equation to determine the IC50 for each compound.

SMILES	IC50
CNC(=O)[C@@H](NC(=O)[C@H]1CN(C(=O)c2n[nH]c3ccccc23)CC12CN(C(=O)[C@H]1CC1(C)C)C2)[C@@H](C)OCc1ccccc1 [I-112B]	> 10000 nM
C[C@@H](OCC1CCOCC1)[C@H](NC(=O)[C@@H]1CN(C(=O)c2cncs2)CC12CN(C(=O)C(C)(C)C1CC1)C2)C(C)(C)O [I-341]	100 to 1000 nM
CNC(=O)[C@@H](NC(=O)[C@@H]1CN(C(=O)c2cnn(CC(F)(F)F)c2)CC12CN(C(=O)CC1CC1)C2)[C@@H](C)OCc1ccccc1 [I-43A]	> 10000 nM
C[C@@H](OCC1CCC(F)(F)CC1)[C@H](NC(=O)[C@@H]1CN(C(=O)c2cncs2)CC12CN(C(=O)[C@H]1CC1(C)C)C2)C(=O)N1CCC2(CC1)COC2 [I-335]	≤ 10 nM
CNC(=O)[C@@H](NC(=O)[C@@H]1CN(C(=O)c2cnn(Cc3ccccc3)c2)CC12CN(C(=O)[C@H]1CC1(C)C)C2)[C@@H](C)O [I-88A, (S)-6-(1-benzyl-1H-pyrazole-4-carbonyl)-2-((S)-2,2-dimethylcyclopropane-1-carbonyl)-N-((2S,3R)-3-hydroxy-1-(methylamino)-1-oxobutan-2-yl)-2,6-diazaspiro[3.4]octane-8-carboxamide]	> 10000 nM
COC[C@H]1CCCN(C(=O)[C@@H](NC(=O)[C@@H]2CN(C(=O)c3cncs3)CC23CN(C(=O)[C@H]2CC2(C)C)C3)[C@@H](C)OCc2ccccc2F)C1 [I-321]	10 to 100 nM
CNC(=O)[C@@H](NC(=O)[C@H]1CN(C(=O)c2cnn(Cc3ccccc3)c2)CC12CN(C(=O)CC(C)(C)C)C2)[C@@H](C)OCc1ccccc1 [I-62B]	> 10000 nM
CNC(=O)[C@@H](NC(=O)[C@@H]1CN(C(=O)c2sc(C(C)C)nc2C)CC12CN(C(=O)[C@H]1CC1(C)C)C2)[C@@H](C)OCC1CCCCC1 [I-227A]	100 to 1000 nM
CNC(=O)[C@@H](NC(=O)[C@H]1CN(C(=O)c2cnco2)CC12CN(C(=O)[C@H]1CC1(C)C)C2)[C@@H](C)OCc1ccccc1 [I-39B]	> 10000 nM
CC1(C)C[C@@H]1C(=O)N1CC2(CN(C(=O)c3cnn(Cc4ccccc4)c3)C[C@H]2C(=O)NC2CCN(C(=O)c3ccccc3)CC2)C1 [I-61A]	1000 to 10000 nM
CC1(C)C[C@@H]1C(=O)N1CC2(CN(C(=O)c3cnn(Cc4ccccc4)c3)C[C@H]2C(=O)N2CCN(CC3CCCCC3)CC2)C1 [I-237]	100 to 1000 nM
C[C@@H](OCC1CC(F)(F)C1)[C@@H](CO)NC(=O)[C@@H]1CN(C(=O)c2cncs2)CC12CN(C(=O)[C@H]1CC1(C)C)C2 [I-412]	10 to 100 nM
CC1(C)C[C@@H]1C(=O)N1CC2(CN(C(=O)c3cnn(Cc4ccccc4)c3)C[C@H]2C(=O)Nc2ccc(Cc3ccccc3)cc2)C1 [I-84A]	1000 to 10000 nM
C[C@@H](OCC1CCC(F)(F)CC1)[C@H](NC(=O)[C@@H]1CN(C(=O)c2cncs2)CC12CN(C(=O)[C@H]1CC1(C)C)C2)C(=O)N1CCC(C(F)(F)F)CC1 [I-398]	≤ 10 nM
CC1(C)C[C@@H]1C(=O)N1CC2(CN(C(=O)c3cnn(Cc4ccccc4)c3)C[C@@H]2C(=O)N[C@H]2CCCN(C(=O)c3ccccc3)C2)C1 [I-83B]	> 10000 nM
CNC(=O)[C@@H](NC(=O)[C@@H]1CN(C(=O)c2cnn(Cc3ccccc3)c2)CC12CN(C(=O)[C@H]1CC1(C)C)C2)[C@@H](C)OC[C@H]1CC[C@H](O)CC1 [I-413]	100 to 1000 nM
COCC1(NC(=O)[C@H]2CN(C(=O)c3cnn(Cc4ccccc4)c3)CC23CN(C(=O)[C@H]2CC2(C)C)C3)CC1 [I-250]	> 10000 nM
COC[C@H]1CCCN(C(=O)[C@@H](NC(=O)[C@@H]2CN(C(=O)c3cncs3)CC23CN(C(=O)C(C)(C)C2CC2)C3)[C@@H](C)OC(C)C2CCC(F)(F)CC2)C1 (stereo partly shown) [I-399]	≤ 10 nM
CNC(=O)[C@@H](NC(=O)[C@H]1CN(C(=O)c2cnn(Cc3ccccc3)c2)CC12CN(C(=O)C(C)(C)C)C2)[C@@H](C)OCC1CCCCC1 [I-174B]	100 to 1000 nM
CNC(=O)[C@@H](NC(=O)[C@H]1CN(C(=O)c2cnn(C)c2)CC12CN(C(=O)[C@H]1CC1(C)C)C2)[C@@H](C)OCc1ccccc1 [I-33B]	> 10000 nM

SMILES	IC50
CC(O[C@H](C)[C@@H](COC1CCC(F)(F)CC1)NC(=O)[C@@H]1CN(C(=O)c2cncs2)CC12CN(C(=O)[C@H]1CC1(F)F)C2)C1CCC(F)(F)CC1 (stereo partly shown) [I-316]	100 to 1000 nM
C[C@@H](OCC1CCC(F)(F)CC1)[C@H](NC(=O)[C@@H]1CN(C(=O)c2cncs2)CC12CN(C(=O)[C@H]1CC1(C)C)C2)C(=O)N1CCC(CO)CC1 [I-397]	≤ 10 nM
CNC(=O)[C@@H](NC(=O)[C@@H]1CN(C(=O)c2cnn(Cc3ccccc3)c2)CC12CN(C(=O)[C@H]1CC1(C)C)C2)[C@@H](C)OCc1ccccc1O [I-251]	100 to 1000 nM
CC1(C)C[C@@H]1C(=O)N1CC2(CN(C(=O)c3cnn(Cc4ccccc4)c3)C[C@@H]2C(=O)NCCOCc2ccccc2)C1 [I-96B]	> 10000 nM
Cc1ccc(CNC(=O)[C@@H]2CN(C(=O)c3cnn(Cc4ccncc4)c3)CC23CN(C(=O)[C@H]2CC2(C)C)C3)nn1 [I-418]	> 10000 nM
C[C@@H](OCC1CCC(F)(F)CC1)[C@H](NC(=O)[C@H]1CN(C(=O)c2cn[nH]c2)CC12CN(C(=O)[C@H]1CC1(C)C)C2)C(=O)N1CCC(F)(F)CC1 [I-228B]	100 to 1000 nM
CC1(C)C[C@@H]1C(=O)N1CC2(CN(C(=O)c3cnn(Cc4ccccc4)c3)C[C@@H]2C(=O)Nc2ccc(-c3ccccc3)cc2)C1 [I-81B]	1000 to 10000 nM
CC1(C)C[C@@H]1C(=O)N1CC2(CN(C(=O)c3cncs3)C[C@@H]2C(=O)N[C@@H](COCC2CCCCC2)C(=O)N2CCCCC2)C1 [I-293]	1000 to 10000 nM
CC1(C)C[C@@H]1C(=O)N1CC2(CN(C(=O)c3cnn(Cc4ccccc4)c3)CC2C(=O)NC2CNCCOC2)C1 (stereo partly shown) [I-245]	1000 to 10000 nM
CNC(=O)C(NC(=O)[C@@H]1CN(C(=O)c2cncs2)CC12CN(C(=O)[C@H]1CC1(C)C)C2)c1nc(C2CCCCC2)co1 (stereo partly shown) [I-425]	100 to 1000 nM
CNC(=O)[C@@H](NC(=O)[C@@H]1CN(C(=O)c2ccncc2)CC12CN(C(=O)[C@H]1CC1(C)C)C2)[C@@H](C)OCc1ccccc1 [I-46A]	> 10000 nM
CC1(C)C[C@@H]1C(=O)N1CC2(CN(C(=O)c3cnn(Cc4ccccc4)c3)C[C@@H]2C(=O)N[C@H]2CCc3cc(Cl)ccc32)C1 [I-120B]	1000 to 10000 nM
C[C@@H](OCC1CCCCC1)[C@@H](COC1CCCNC1)NC(=O)[C@@H]1CN(C(=O)c2cncs2)CC12CN(C(=O)[C@H]1CC1(C)C)C2 (stereo partly shown) [I-332]	≤ 10 nM
CNC(=O)C(NC(=O)[C@@H]1CN(C(=O)c2cncs2)CC12CN(C(=O)[C@H]1CC1(C)C)C2)c1cccc(C2CCCCC2)n1 (stereo partly shown) [I-362]	10 to 100 nM
CC1(C)C[C@@H]1C(=O)N1CC2(CN(C(=O)c3cnn(Cc4ccccc4)c3)C[C@H]2C(=O)NCc2cccnn2)C1 [I-359]	> 10000 nM
C[C@@H](OCc1ccccc1)[C@H](NC(=O)[C@H]1CN(C(=O)c2cnn(Cc3ccccc3)c2)CC12CN(C(=O)[C@H]1CC1(C)C)C2)C(N)=O [I-176B]	1000 to 10000 nM
CNC(=O)[C@@H](NC(=O)[C@@H]1CN(C(=O)c2cncs2)CC12CN(C(=O)[C@H]1CC1(C)C)C2)[C@H](O)CC1CCCCC1 [I-379]	> 10000 nM
CNC(=O)[C@@H](NC(=O)C1(F)CN(C(=O)c2cnn(Cc3ccccc3)c2)CC12CN(C(=O)[C@H]1CC1(C)C)C2)[C@@H](C)OCc1ccccc1 (stereo partly shown) [I-500]	100 to 1000 nM
CNC(=O)[C@@H](NC(=O)[C@H]1CN(C(=O)c2cnn(CC(F)(F)F)c2)CC12CN(C(=O)CC1CC1)C2)[C@@H](C)OCc1ccccc1 [I-43B]	> 10000 nM
C[C@@H](OCc1ccccc1)[C@H](NC(=O)C1CN(C(=O)c2cnn(Cc3ccccc3)c2)CC12CN(C(=O)[C@H]1CC1(C)C)C2)C(=O)NCCN (stereo partly shown) [I-31]	100 to 1000 nM
